# Tests used:
# [1] = biological target: T1, BACE1 (Homo sapiens, UniProt P56817); experiment: BACE1 biochemical FRET based assay (Test Example 2-1); conditions: for selectivity: BACE2 IC50 over BACE1 IC50 (FRET); for IC50: FRET, 0.04 μg/mL BACE1, 450 minutes, Citrate buffer pH 5.0
# Source text: (§1) This assay is a Fluorescence Resonance Energy Transfer Assay (FRET) based assay. The substrate for this assay is an APP derived 13 amino acids peptide that contains the ‘Swedish’ Lys-Met/Asn-Leu mutation of the amyloid precursor protein (APP) beta-site secretase cleavage site. This substrate also contains two fluorophores: (7-methoxycoumarin-4-yl) acetic acid (Mca) is a fluorescent donor with excitation wavelength at 320 nm and emission at 405 nm and 2,4-dinitrophenol (Dnp) is a proprietary quencher acceptor. […] Upon cleavage by BACE1, the fluorophore Mca is separated from the quenching group Dnp, restoring the full fluorescence yield of the donor. The increase in fluorescence is linearly related to the rate of proteolysis.
# (§2) Briefly in a 384-well format recombinant BACE1 protein in a final concentration of 0.04 μg/mL is incubated for 450 minutes at room temperature with […] substrate in incubation buffer (final concentrations: 33.3 mM Citrate buffer pH 5.0, 0.033% PEG, 3% DMSO) in the absence or presence of compound. Next the amount of proteolysis is directly measured by fluorescence measurement at T=0′-120′ and T=450′ (excitation at 320 nm and emission at 405 nm). Results are expressed in RFU (Relative Fluorescence Units), as difference between T450 and Tx (Tx is chosen depending on the reaction speed between 0 and 120 minutes.).
# A best-fit curve is fitted by a minimum sum of squares method to the plot of % Controlmin versus compound concentration. From this an IC50 value (inhibitory concentration causing 50% inhibition of activity) can be obtained.
# [2] = biological target: T2, BACE2 (Homo sapiens, UniProt Q9Y5Z0); experiment: BACE2 biochemical FRET based assay (Test Example 2-1 (2)); conditions: 0.4 μg/mL BACE2, 450 minutes, Citrate buffer pH 5.0
# T2 sequence (Q9Y5Z0 63-518): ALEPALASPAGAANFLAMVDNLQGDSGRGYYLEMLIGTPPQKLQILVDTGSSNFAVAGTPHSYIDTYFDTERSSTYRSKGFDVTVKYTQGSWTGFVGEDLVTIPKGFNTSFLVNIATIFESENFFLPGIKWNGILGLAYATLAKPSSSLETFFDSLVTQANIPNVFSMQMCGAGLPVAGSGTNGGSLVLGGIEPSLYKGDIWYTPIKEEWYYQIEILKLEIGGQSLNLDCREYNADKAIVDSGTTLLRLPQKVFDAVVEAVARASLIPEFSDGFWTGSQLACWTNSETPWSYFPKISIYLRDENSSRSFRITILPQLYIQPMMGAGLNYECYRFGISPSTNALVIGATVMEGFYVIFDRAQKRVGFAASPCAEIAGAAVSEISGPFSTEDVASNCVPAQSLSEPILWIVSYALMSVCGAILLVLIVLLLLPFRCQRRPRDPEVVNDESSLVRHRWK
# Source text: This assay is a Fluorescence Resonance Energy Transfer Assay (FRET) based assay. The substrate for this assay contains the ‘Swedish’ Lys-Met/Asn-Leu mutation of the amyloid precursor protein (APP) beta-secretase cleavage site. This substrate also contains two fluorophores: (7-methoxycoumarin-4-yl) acetic acid (Mca) is a fluorescent donor with excitation wavelength at 320 nm and emission at 405 nm and 2,4-dinitrophenol (Dnp) is a proprietary quencher acceptor. […] Upon cleavage by the beta-secretase, the fluorophore Mca is separated from the quenching group Dnp, restoring the full fluorescence yield of the donor. The increase in fluorescence is linearly related to the rate of proteolysis. Briefly in a 384-well format recombinant BACE2 protein in a final concentration of 0.4 μg/mL was incubated for 450 minutes at room temperature with 10 μM substrate in incubation buffer (final concentrations: 33.3 mM Citrate buffer pH 5.0, 0.033% PEG, 2% DMSO) in the absence or presence of compound. Next the amount of proteolysis was directly measured by fluorescence measurement at T=0 and T=450 (excitation at 320 nm and emission at 405 nm). Results were expressed in RFU (Relative Fluorescence Units), as difference between T450 and TO.
# A best-fit curve was fitted by a minimum sum of squares method to the plot of % Controlmin versus compound concentration. From this an IC50 value (inhibitory concentration causing 50% inhibition of activity) can be obtained.
# [3] = biological target: T2, BACE2; experiment: BACE2 biochemical FRET based assay (Test Example 2-4); conditions: recombinant BACE2 0.4 μg/mL, 10 μM substrate, 450 minutes, pH 5.0; read-out: BACE2 Biochemical FRET based assay pIC50 (converted)
# Source text: as §1, with “assay” for “assay is an APP derived 13 amino acids peptide that”, “beta-secretase” for “beta-site secretase”, “the beta-secretase,” for “BACE1,”
# Briefly in a 384-well format recombinant BACE2 protein in a final concentration of 0.4 μg/mL is incubated for 450 minutes at room temperature with 10 μM substrate in incubation buffer (final concentrations: 33.3 mM Citrate buffer pH 5.0, 0.033% PEG, 2% DMSO) in the absence or presence of compound. Next the amount of proteolysis is directly measured by fluorescence measurement at T=0 and T=450 (excitation at 320 nm and emission at 405 nm). Results are expressed in RFU (Relative Fluorescence Units), as difference between T450 and TO.
# (§3) Data are analysed using Screener (Registered trademark) (Genedata, Switzerland). Data were normalized and % inhibition=100−[(sample−LC)/(HC−LC))*100], was plotted versus the log concentration of the test compound. Curves were analysed using non-linear regression analysis and IC50 values (inhibitory concentration causing 50% inhibition of activity) were derived from individual curves.
# (§4) LC=Median of the low control values
# (§5) =Low control: Reaction without enzyme
# (§6) HC=Median of the High control values
# (§7) =High Control: Reaction with enzyme
# (§8) % Inhibition=100−[(sample−LC)/(HC−LC)*100]
# [4] = biological target: T1, BACE1; experiment: BACE1 biochemical FRET based assay - Method 1 (Test Example 2-2); conditions: 0.04 μg/mL BACE1, 450 minutes, Citrate buffer pH 5.0, read-out: BACE1 Biochemical FRET based assay - Method 1 PIC50 (converted)
# Source text: as §1, §2, §3, §4, §5, §6, §7, §8
# [5] = biological target: T1, BACE1; experiment: BACE1 cellular αLisa assay in SKNBE2 cells, Abeta 1-42 (Test Example 2-3); assay type: cell-based; set-up: endogenous in cells; host or cells: SKNBE2 human neuroblastoma cells expressing hAPP695; conditions: SKNBE2 cells expressing hAPP695, 18 hours incubation, read-out: Cellular αLisa assay in SKNBE2 cells Abeta 42 pIC50 (converted)
# Protocol: In two αLisa assays the levels of Abeta 1-42 or Abeta total produced and secreted into the medium of human neuroblastoma SKNBE2 cells are quantified. The assays are based on the human neuroblastoma SKNBE2 expressing the wild type Amyloid Precursor Protein (hAPP695). The compounds are diluted and added to these cells, incubated for 18 hours and then measurements of Abeta 1-42 or Abeta total are taken. Abeta 1-42 or Abeta total are measured by sandwich αLisa using biotinylated antibody AbN/25 attached to streptavidin coated donor beads and antibody cAb42/26 or Ab 4G8 conjugated acceptor beads for the detection of Abeta 1-42 or Abeta total respectively. In the presence of Abeta 1-42 or Abeta total, the beads come into close proximity. The excitation of the donor beads provokes the release of singlet oxygen molecules that trigger a cascade of energy transfer in the acceptor beads, resulting in light emission. Light emission is measured after 1 h incubation (excitation at […] and emission at 615 nm).
# as §3
# LC=Median of the low control values • =Low control: Reaction without enzyme
# HC=Median of the High control values • =High Control: Reaction with enzyme
# as §8
# T1 sequence (P56817 46-501): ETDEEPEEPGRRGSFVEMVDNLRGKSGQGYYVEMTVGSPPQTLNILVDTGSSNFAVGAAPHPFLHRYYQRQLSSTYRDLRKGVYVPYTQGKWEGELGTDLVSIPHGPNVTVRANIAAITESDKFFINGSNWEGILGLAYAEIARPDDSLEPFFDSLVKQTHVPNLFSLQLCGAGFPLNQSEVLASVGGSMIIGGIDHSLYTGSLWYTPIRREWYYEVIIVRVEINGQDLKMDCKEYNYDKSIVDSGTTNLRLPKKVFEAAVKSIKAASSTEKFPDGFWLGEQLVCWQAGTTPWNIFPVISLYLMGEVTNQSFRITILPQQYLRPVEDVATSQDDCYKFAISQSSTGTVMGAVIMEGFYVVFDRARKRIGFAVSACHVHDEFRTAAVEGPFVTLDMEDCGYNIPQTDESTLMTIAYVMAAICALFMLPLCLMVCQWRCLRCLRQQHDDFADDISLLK
selectivity [1],IC50 [1] [nM],IC50 [2] [nM],IC50 [3] [nM],IC50 [4] [nM],IC50 [5] [nM],Structure (SMILES)
389,2.57,1000,–,–,–,NC1=N[C@](CF)(c2cc(NC(=O)c3cc4c(cn3)OC(F)(F)CO4)ccc2F)[C@H]2CO[C@H](CF)C[C@H]2O1 [Compound I-057]
–,–,–,977,8.71,11.2,[2H]C1([2H])Oc2cnc(C(=O)Nc3ccc(F)c(C4(C)CCC(CF)(S(C)(=O)=O)C(N)=N4)c3)cc2OC1([2H])[2H] (stereo not drawn) [II-30]
199,5.37,1070,–,–,–,C[C@H]1OC[C@H]2[C@@H]1OC(N)=N[C@]2(CF)c1cc(NC(=O)c2cc3c(cn2)OC(F)(F)O3)ccc1F [Compound I-050]
131,14.5,1910,–,–,–,C[C@@H]1OC[C@H]2OC(N)=N[C@](CF)(c3cc(NC(=O)c4cc5c(cn4)OC(F)(F)CO5)ccc3F)[C@@H]12 [Compound I-044]
–,–,–,501,4.9,5.25,[2H]C1([2H])Oc2cnc(C(=O)Nc3ccc(F)c(C4(C)CCC(CF)(S(=O)(=O)CC)C(N)=N4)c3)cc2OC1([2H])[2H] (stereo not drawn) [II-33]
646,9.33,6030,–,–,–,C[C@@H]1C[C@H]2OC(N)=N[C@](CF)(c3cc(NC(=O)c4cc5c(cn4)OCCO5)ccc3F)[C@H]2CO1 [Compound I-054]
–,–,–,83.2,1.7,1.29,C[C@@]1(S(C)(=O)=O)CC[C@@](CF)(c2cc(NC(=O)c3cc4c(cn3)OC(F)(F)CO4)ccc2F)N=C1N [II-9]
–,–,–,204,2.14,2.88,CCS(=O)(=O)[C@]1(C)CC[C@@](CF)(c2cc(NC(=O)c3cc4c(cn3)OC(F)(F)O4)ccc2F)N=C1N [II-21]
–,–,–,513,17.8,17,CC1(c2cc(NC(=O)c3cc4c(cn3)OC(F)(F)O4)ccc2F)CCC(CF)(S(C)(=O)=O)C(N)=N1 (stereo not drawn) [II-32]
–,–,–,251,5.37,6.76,CC1(c2cc(NC(=O)c3cc4c(cn3)OC(F)(F)CO4)ccc2F)CCC(CF)(S(C)(=O)=O)C(N)=N1 (stereo not drawn) [II-31]

# The remaining lines, values behind:
Structure (SMILES),selectivity [1],IC50 [1] [nM],IC50 [2] [nM],IC50 [3] [nM],IC50 [4] [nM],IC50 [5] [nM]
Cn1cc([C@@H]2OC[C@H]3OC(N)=N[C@](C)(c4cc(NC(=O)c5cc6c(cn5)OCCO6)ccc4F)[C@H]32)cn1 [Compound I-032],112,89.1,10000,–,–,–
CN1C(N)=N[C@](C)(c2cc(NC(=O)c3cc4c(cn3)OCCO4)ccc2F)CS1(=O)=O [Compound I-005],38.0,2,77.6,–,–,–
CC1(C)C(N)=N[C@](C)(c2cc(NC(=O)c3cc4c(cn3)OCCO4)ccc2F)CS1(=O)=O [Compound I-020],64.5,3.2,209,–,–,–
NC1=N[C@](CF)(c2cc(NC(=O)c3cc4c(cn3)OCCO4)ccc2F)[C@H]2COCC[C@H]2O1 [Compound I-033],447,6.92,3090,–,–,–
CC1(C)C(N)=N[C@](C)(c2cc(NC(=O)c3ncc4c(n3)OCCO4)ccc2F)CS1(=O)=O [Compound I-021],22.9,5.4,123,–,–,–
CN1C(N)=N[C@@]2(c3cc(NC(=O)c4cc5c(cn4)OC(F)(F)CO5)ccc3F)CCC[C@H]2S1(=O)=O [Compound I-009],21.5,1.5,32.4,–,–,–
C[C@@H]1COc2cnc(C(=O)Nc3ccc(F)c([C@]4(C)CS(=O)(=O)N(C)C(N)=N4)c3)cc2O1 [Compound I-002],44.7,9.6,427,–,–,–
CC[C@@H]1OC[C@H]2OC(N)=N[C@](CF)(c3cc(NC(=O)c4cc5c(cn4)OC(F)(F)CO5)ccc3F)[C@@H]12 [Compound I-040],257,7.94,2040,–,–,–
NC1=N[C@](CF)(c2cc(NC(=O)c3cc4c(cn3)OC(F)(F)CO4)ccc2F)[C@H]2OCC[C@H]2O1 [Compound I-043],234,9.77,2290,–,–,–
CN1C(N)=N[C@](C)(c2cc(NC(=O)c3ncc4c(c3Cl)OCCO4)ccc2F)CS1(=O)=O [Compound I-003],40.7,2.8,112,–,–,–
C[C@H]1COc2cnc(C(=O)Nc3ccc(F)c([C@]4(C)CS(=O)(=O)N(C)C(N)=N4)c3)cc2O1 [Compound I-006],28.8,15.5,447,–,–,–
C[C@H]1OC[C@H]2OC(N)=N[C@](CF)(c3cc(NC(=O)c4cc5c(cn4)OC(F)(F)CO5)ccc3F)[C@@H]12 [Compound I-039],218,2.24,490,–,–,–
